Reference: patent publication US20230390234A1, “COMPOSITION INHIBITING MUSCLE LOSS OR PROMOTING MUSCLE FORMATION THROUGH SKIN-DERIVED EXOSOMES” (EX HEALTHCARE INC., priority 2021, published 2023)

Assays:
[1] = tested on: human fibroblast HS68 (FB); test: Cytotoxicity of betaine, CCK-8 cell viability in fibroblasts; type: cell-based; conditions: betaine at different concentrations, 24 hours, CCK-8, FIG. 1A
Experimental: (§1) As human skin dermal cells, normal human dermal fibroblasts (NHDF, fibroblasts) isolated from adult samples were purchased from LONZA (Cat. CC-2511). As […], C2C12 cells, which are myoblasts isolated and cultured from C3H mice, were purchased from ATCC (CRL-1772).
(§2) Subcultured passage 27 human fibroblast HS68 (hereinafter referred to as FB) or C2C12 was inoculated onto a 96-well plate at a concentration of 1×10^4 cells/well and cultured in an incubator at 5% CO2 and 37° C. for 24 hours. After culturing, cells were treated with betaine at different concentrations and additionally cultured for 24 hours, and an untreated group was used as a control. After the cells were washed with PBS, the cells were additionally cultured with CCK-8 (DONGJIN, CK04-11) for 2 hours, and absorbance was measured at 450 nm using a microplate reader. From the measured results, relative cell viability according to the betaine treatment concentration was calculated by setting the value of the control to 100.

[2] = tested on: C2C12 cells; test: Cytotoxicity of betaine, CCK-8 cell viability in myofibroblasts; type: cell-based, mouse; conditions: betaine at different concentrations, 24 hours, CCK-8, FIG. 1B
Experimental: as §1, §2

[3] = tested on: miRNA-26a; test: Level of miRNA-26a in exosomes isolated from treated fibroblasts (real-time qPCR); type: cell-based, human
Experimental: After treating the subcultured passage 27 FB with betaine for 48 hours, the medium was collected and centrifuged at 3000×g for 30 minutes. After centrifugation, only the supernatant was recovered and transferred to Ultra-15 Centrifugal Filter Units (Amicon, MERCK, C7715) and centrifuged at 4000×g for 40 minutes. Only the supernatant was recovered, Total Exosome Isolation Reagent (Invitrogen, Cat No #4478539) was added at ½ the volume of the supernatant, and the mixture was allowed to react at 4° C. overnight. The next day, after centrifugation at 10000×g for 1 hour, the supernatant was removed by suction, and then a final exosome pellet was re-suspended in PBS. The exosomes obtained in the present example are hereinafter referred to as “fibroblast-derived exosomes”.
2×10^6 FB cells were inoculated onto a 75 T flask, cultured for 24 hours, and then treated with betaine (0.1, 1 and 10 mM). After the cells were additionally cultured for 48 hours, exosomes were isolated by the method of Example 1-2, and microRNA (hereinafter described as miRNA) was extracted from the exosomes isolated from the culture medium using an RNeasy plus mini kit (Qiagen, Germany) according to the manufacturer's protocol.
Real-time qPCR was performed with a tagman probe targeting mature RNA. The relative expression level of the intracellular target miRNA was normalized with the expression level of RNU48, which is used as a housekeeping gene during miRNA quantification, and then shown as a relative %. The relative expression of miRNA-26a in exosomes was normalized with the expression of […], which is used as a housekeeping gene during quantification of miRNA in fibroblast exosomes, and then shown as a relative %. For all real-time qPCR analyses, an Applied Biosystems 7500 (Applied Biosystems) apparatus was used.
The FB was treated with the material shown in the following Table 1 to isolate exosomes in the same manner as in Example 1-1, and the level of miRNA-26a was confirmed in the exosomes by the method in Example 1-4.
Thereafter, after fibroblasts (FB) were treated with the Camellia japonica flower extract for 48 hours, exosomes were isolated by the method in Example 1-2. Furthermore, the level of miR-26a was confirmed in exosomes isolated from the culture medium by the method in Example 1-4. As a result of the confirmation, it could be confirmed that the level of miRNA-26a was increased in the exosomes isolated from the FB treated with the Camellia flower extract at a concentration of 50 ppm compared to the control which was an untreated group (FIG. 9).

[4] = tested on: MURF1; test: Muscle loss marker expression in differentiated C2C12 cells, qPCR; type: cell-based, mouse; conditions: differentiated C2C12, 48 hours; betaine 0.1 mM or exosomes about 20 μg/ml, FIG. 4A
Experimental: (§3) C2C12 cells were inoculated onto a 6-well plate at a concentration of 1.5×10^5 cells/well and cultured for 24 hours. Thereafter, the medium was exchanged with a medium supplemented with 2% horse serum, and the cells were further cultured for 72 hours to promote the differentiation of C2C12 cells. After the differentiation was completed, the cells were treated with betaine at 0.1 mM or fibroblast-derived exosomes (about 20 μg/ml) obtained in Example 1-2 and further cultured for 48 hours. Total RNA was extracted with an RNeasy plus mini kit and cDNA was synthesized with SuperScript™ III (Invitrogen, USA). Thereafter, qPCR was performed with a target gene taqman probe, and then analysis was performed.
(§4) C2C12 cells were inoculated onto a 6-well plate at a concentration of 1.5×10^5 cells/well and cultured for 24 hours. Thereafter, the medium was exchanged with a medium supplemented with 2% horse serum, and the cells were further cultured for 72 hours to promote the differentiation of C2C12 cells. After the differentiation was completed, the cells were treated with the Camellia japonica flower extract at 50 ppm or the exosomes (about 20 μg/ml) obtained in Example 4-1 and further cultured for 48 hours. Thereafter, the change in expression of the target gene was confirmed by qPCR by the method in Example 2-1.

[5] = tested on: myostatin; test: as above; type: cell-based, mouse; conditions: differentiated C2C12, 48 hours; betaine 0.1 mM or exosomes about 20 μg/ml, FIG. 4C
Experimental: as §3, §4

[6] = tested on: atrogin-1; test: as above; type: cell-based, mouse; conditions: differentiated C2C12, 48 hours; betaine 0.1 mM or exosomes about 20 μg/ml, FIG. 4B
Experimental: as §3

[7] = tested on: MyoD; test: Myogenesis marker expression in differentiated C2C12 cells, qPCR; type: cell-based, mouse; conditions: differentiated C2C12, 48 hours; betaine 0.1 mM or exosomes about 20 μg/ml, FIG. 5
Experimental: as §3

[8] = tested on: MURF1; test: Muscle loss marker protein level in differentiated C2C12 cells, western blotting; type: cell-based, mouse; conditions: differentiated C2C12, 48 hours; betaine 0.1 or 0.5 mM or exosomes, FIG. 6
Experimental: (§5) C2C12 cells were inoculated onto a 6-well plate at a concentration of 5×10^5 cells/well and cultured for 24 hours. Thereafter, the medium was exchanged with a medium supplemented with 2% horse serum, and the cells were further cultured for 72 hours to promote the differentiation of C2C12 cells. After the differentiation was completed, the cells were treated with betaine (0.1 and 0.5 mM) or fibroblast-derived exosomes and further cultured for 48 hours. Thereafter, cells were lysed by adding a lysis buffer (1% NP40, 0.05 M Tris-HCl, pH 7.5, 0.15 M NaCl and 0.01 MgCl2) including a protease inhibitor to the C2C12 cells, and the concentration of proteins was measured by a […] (BCA) method. The quantified protein was separated with SDS-PAGE and transferred to a PVDF membrane, and the protein expression level of each muscle loss marker was confirmed with an antibody.

[9] = tested on: atrogin-1; test: as above; type: cell-based, mouse; conditions: differentiated C2C12, 48 hours; betaine 0.1 or 0.5 mM or exosomes, FIG. 6
Experimental: as §5

[10] = tested on: myostatin; test: as above; type: cell-based, mouse; conditions: differentiated C2C12, 48 hours; betaine 0.1 or 0.5 mM or exosomes, FIG. 6
Experimental: as §5

[11] = tested on: MyoD; test: Myogenesis marker protein level in differentiated C2C12 cells, western blotting; type: cell-based, mouse; conditions: differentiated C2C12, 48 hours; betaine 0.1 or 0.5 mM or exosomes, FIG. 7
Experimental: as §5

Molecule: C[N+](C)(C)CC(=O)O [Betaine]
- cell viability of FB [1]: no change
- cell viability of C2C12 [2]: no change
- miRNA-26a level in exosomes, fold change (vs. control) ([3]; FB treated with 1 mM): 1.821 fold
- level of miRNA-26a in exosomes vs. untreated control ([3]; FB treated with betaine 0.1, 1 and 10 mM, 48 hours, FIG. 3): increased
- expression of MURF1 (qPCR) vs. control [4]: slightly increased
- expression of myostatin (qPCR) vs. control [5]: almost the same level
- expression of atrogin-1 (qPCR) vs. control [6]: slightly increased
- expression of MyoD (qPCR) vs. control [7]: increased compared to the control, but was not at a significant level
- protein expression of MURF1 (western blotting) [8]: no change
- protein expression of atrogin-1 (western blotting) [9]: no change
- protein expression of myostatin (western blotting) [10]: no change
- protein expression of MyoD (western blotting) [11]: unchanged

Molecule: O=c1c(O)c(-c2cc(O)c(O)c(O)c2)oc2cc(O)cc(O)c12 [Myricetin]
- miRNA-26a level in exosomes, fold change (vs. control) ([3]; FB treated with 25 uM): 1.599 fold

Molecule: O=C1C[C@@H](c2ccc(O)cc2)Oc2cc(O)cc(O)c21 [Naringenin]
- miRNA-26a level in exosomes, fold change (vs. control) ([3]; FB treated with 10 uM): 1.854 fold

Molecule: COc1ccc(-c2cc(=O)c3c(OC)c(OC)c(OC)c(OC)c3o2)cc1OC [Nobiletin]
- miRNA-26a level in exosomes, fold change (vs. control) ([3]; FB treated with 30 uM): 1.447 fold

Molecule: Camelliaside A
- miRNA-26a level in exosomes, fold change (vs. control) ([3]; FB treated with 1 ppm): 1.956 fold

Molecule: Copper Tripeptide
- miRNA-26a level in exosomes, fold change (vs. control) ([3]; FB treated with 10 ppm): 1.743 fold

Molecule: Kojyl carboxy dipeptide-23
- miRNA-26a level in exosomes, fold change (vs. control) ([3]; FB treated with 10 ppm): 1.483 fold

Molecule: L-carnosine
- miRNA-26a level in exosomes, fold change (vs. control) ([3]; FB treated with 5 ppm (0.0005%)): 1.537 fold
